Values of other authors in patent US20110021626A1, “ENCAPSULATION OF VITAMIN C INTO WATER SOLUBLE DENDRIMERS” (CENTRE NATIONAL DE LA RECHERCHE SCIENTIFIQUE - CNRS, priority 2008, published 2011).

Settings: at 25° C. in water

## O=C1O[C@H]([C@@H](O)CO)C(O)=C1O [ascorbic acid]
  pKa: 4,11
